{
  "source": "patent US20240408175A1",
  "about": "“BMP9 OR AN AGONIST THEREOF AND ITS USES RELATED TO REDUCING METASTASIS OF CANCER” (THE UAB RESEARCH FOUNDATION, priority 2021, published 2024)",
  "key": {"SOX2 [1]": {"test_system": "SOX2", "assay": "SOX2 expression by Western blot / qRT-PCR in cancer cells", "format": "cell-based, human", "protocol": "(§1) Lysate and RNA preparation: 100,000-300,000 cells were seeded in a poly-HEMA coated 6-well plate for indicated times in full serum unless indicated otherwise. Cells were collected by centrifugation and lysed with trizol for RNA extraction or direct 2× lysis buffer for protein lysates.\nXenograft data were analyzed using parametric statistics as described in the legends. Survival curves were analyzed with log-rank statistics. In vitro experiments were analyzed using parametric statistics (ANOVA global test with Dunnett's/Sidak multiple comparison test as post-hoc tests as applicable and described in legend) and presented as the mean±SEM. All real time PCR's are relative semi quantitative RT-PCR's (hereby referred to as qRT-PCR) and are a combined quantitation of a minimum of 3 independent biological trials assayed in triplicate with biological replicates represented as individual scatter dots in the graphs or as indicated in legends. In all cases, statistical significance was set at a threshold of p<0.05. All statistical analyses were conducted with GraphPad Prism Software Ver. 9.0 and specific statistical test information described in figure legends."}, "PA1 cells": {"test_system": "PA1 cells", "assay": "Microarray transcription profile under anchorage independence", "format": "cell-based, human", "conditions": "24 h, 2-fold change criterion", "protocol": "as §1\nTotal cellular RNA was extracted using Trizol reagent according to the manufacturer's protocol. RNA quality was determined using an Agilent 2100 Bioanalyzer and an RNA 6000 Nano kit (Agilent, Cat. No. 5067-1511) with RNA integrity numbers (RIN) ranging from 9.8 to 10. Microarray analyses were performed on the GeneChip™ Human Gene 2.0 ST ArrayS (Thermo Fisher Scientific, Cat. No. 902112) by the functional genomic core at University of South Carolina. Data were imported into the Affymetrix GeneChip Expression Console 1.4.1.46 and processed at the gene-level using the Robust Multichip Analysis (RMA) algorithm to generate CHP files. Experimental-group specific transcriptional responses were determined using unpaired one-way between-subject analysis of variance (ANOVA). Differentially expressed genes with p-values smaller than 0.05 and fold change higher than 2.0 and lower than −2.0 were used for further bioinformatics analysis."}, "HEYT30 cells": {"test_system": "HEYT30 cells", "assay": "Cell survival under anchorage independence, HEYT30", "format": "cell-based, human", "protocol": "For Live/Dead analysis under anchorage independence, 1,000 cells were seeded in 96-well hydrogel-coated ultra-low attachment (ULA) plates (Corning #4515) for times indicated. Growth factor treatment was done under low serum 2.5% FBS condition (Cells were plated in 10% FBS to allow spheroid formation before beginning treatment). Cells were then stained with 2 μM Calcein-AM and 4 μM Ethidium-homodimer for 30 min before imaging. z-stacked images were obtained using the Zeiss LSM700 Confocal microscope (Microscopy and Flow Cytometry Core, University of South Carolina) and NIKON A1 Confocal microscope (UAB High Resolution Imaging Facility). Fluorescent quantification was performed using ImageJ Fiji software to calculate the Corrected Total Cell Fluorescent (CTCF)=Integrated Density−(Area of selected cell×Mean fluorescence of background readings) per spheroid."}, "[2]": {"test_system": "SOX2 promoter methylation", "assay": "Methylation-specific qPCR of SOX2 promoter", "format": "cell-based, human", "conditions": "PA1, rhBMP9 24 h", "protocol": "Genomic DNA was extracted, and bisulfite conversion was performed on 500 ng of gDNA using the MethylAmp DNA modification kit according to manufacturer's instructions. Relative quantitative RT-PCR (qPCR) was performed with methylation-specific and unmethylation-specific primers (see Table 3)."}, "[3]": {"assay": "Overall toxicity of daily i.p. BMP9 (body weight, kidney and liver function tests)", "format": "in vivo", "conditions": "up to 3 weeks", "protocol": "All animal studies were performed in accordance with the Institutional Animal Care and Use Committee at the University of Alabama Birmingham. Female SCID mice (Key resources table) at 5-7 weeks of age were housed under pathogen-free conditions at the Animal Research Facility at UAB. 1.5×10^6 GFP-luciferase SK-OV3 cells or 3×10^6 GFP-luciferase expressing PA1 cells were intraperitoneally injected. Mice were monitored daily, with girth and weight measurement taken twice a week. Tumor progression was tracked weekly using the IVIS Lumina III In vivo Imaging System (Caliper Life Sciences, MA) at UAB's Small Animal Imaging Facility. rhBMP9 was administered at the time of tumor cell injection followed by daily intraperitoneal (i.p.) injections of 1 mg/mL in 4 mM HCl+PBS+DI water (Vehicle), to achieve a final 5 mg/kg dose. For metastasis and tumor growth analysis, mice were euthanized between 21-50 days depending on the cell line. At necropsy, ascites, if present, were collected and volumes measured when possible, tumor weights in the omentum and other organs were recorded and collected when possible. For survival studies, mice that reached end-point criteria, including continued weight loss, respiratory trouble and permanent recumbency were euthanized. […]"}, "[4]": {"test_system": "OC cell lines (PA1, OVCA420, OVCAR3, SKOV3, OVCA433)", "assay": "Live/Dead analysis under anchorage independence (anoikis), panel of OC cell lines", "format": "cell-based, human", "conditions": "10 nM for 24 hours after 48 hours anchorage independence"}, "SKOV3-luc-GFP cells": {"test_system": "SKOV3-luc-GFP cells", "assay": "SKOV3-luc-GFP intraperitoneal xenograft", "format": "in vivo, NOD-SCID mice", "protocol": "All animal studies were performed in accordance with the Institutional Animal Care and Use Committee at the University of Alabama Birmingham. Female SCID mice (Key resources table) at 5-7 weeks of age were housed under pathogen-free conditions at the Animal Research Facility at UAB. 1.5×10^6 GFP-luciferase SK-OV3 cells or 3×10^6 GFP-luciferase expressing PA1 cells were intraperitoneally injected. Mice were monitored daily, with girth and weight measurement taken twice a week. Tumor progression was tracked weekly using the IVIS Lumina III In vivo Imaging System (Caliper Life Sciences, MA) at UAB's Small Animal Imaging Facility. rhBMP9 was administered at the time of tumor cell injection followed by daily intraperitoneal (i.p.) injections of 1 mg/mL in 4 mM HCl+PBS+DI water (Vehicle), to achieve a final 5 mg/kg dose. For metastasis and tumor growth analysis, mice were euthanized between 21-50 days depending on the cell line. At necropsy, ascites, if present, were collected and volumes measured when possible, tumor weights in the omentum and other organs were recorded and collected when possible. For survival studies, mice that reached end-point criteria, including continued weight loss, respiratory trouble and permanent recumbency were euthanized. For microscopic analysis of tissues, formalin-fixed tissues were processed, paraffin-embedded, and sectioned at 5 μm thickness and H&E stained at UAB's histology core.\n(§2) IHC was performed using the BioCare Mach4 Universal Detection Kit. Specifically, anti-SOX2 was diluted in Da Vinci Green Diluent and incubated overnight at 4° C. in a humidified chamber. HRP was detected with 3,30-diaminobenzidine (DAB) substrate for 4 minutes. TUNEL staining was performed according to the manufacturer's instruction. Slides were examined and images captured with EVOS M7000 microscope. Cell profiler (Stirling et al., 2021) and Image J Fiji software were used for image quantification."}, "SOX2 [5]": {"test_system": "SOX2", "assay": "SOX2 levels in xenograft tumors (IHC, qRT-PCR)", "format": "in vivo", "conditions": "IHC and qRT-PCR, vs vehicle control-treated mice", "protocol": "as §2"}},
  "data": [
    {"substance": "BMP9: recombinant human bone morphogenetic protein 9 (BMP9/GDF2), TGF-β family ligand", "values": [
      {"measurement": "SOX2 expression in other cancer types", "setting": "SOX2 [1]; A549, BON-1, H727 cells, 24 hours", "result": "downregulated"},
      {"measurement": "SOX2 in patient ascites-derived tumor cells", "setting": "SOX2 [1]; EOC15 and AF68, anchorage-independent, 48 hours", "result": "downregulated"},
      {"measurement": "anchorage-independence-induced increases in SOX2", "setting": "SOX2 [1]; OVCAR4, OVCA420, OVCA433 cells, 3D", "result": "effectively suppressed"},
      {"measurement": "dose-response of SOX2 protein", "setting": "SOX2 [1]; PA1 and OVCAR3, indicated doses, 24 h", "result": "dose-dependent repression"},
      {"measurement": "SOX2 by qRT-PCR in anchorage-independent conditions", "setting": "SOX2 [1]; PA1 cells, 3D, 24 hrs", "result": "downregulation"},
      {"measurement": "reduction in SOX2 expression under attached growth conditions", "setting": "SOX2 [1]; several cell lines incl. OVCAR3 and SKOV3, 10 nM, 24 hours", "result": "significant"},
      {"measurement": "downregulated genes", "setting": "PA1 cells", "result": 210},
      {"measurement": "upregulated genes", "setting": "PA1 cells", "result": 333},
      {"measurement": "differentially expressed genes", "setting": "PA1 cells; p<0.05", "result": 543},
      {"measurement": "reduction in percentage live cells", "setting": "HEYT30 cells; 10 nM", "result": 63, "unit": "%"},
      {"measurement": "reduction in percentage live cells", "setting": "HEYT30 cells; 1 and 5 nM", "result": "about 35%"},
      {"measurement": "increase in SOX2 promoter methylation compared with control cells", "setting": "[2]", "result": 2.53},
      {"measurement": "overall toxicity (body weight, kidney and liver function tests)", "setting": "[3]", "result": "no notable toxicity"},
      {"measurement": "percentage of dead cells", "setting": "[4]", "result": "increase"},
      {"measurement": "mice with detectable ascites", "setting": "SKOV3-luc-GFP cells; 5 mg/kg i.p. daily", "result": "none"},
      {"measurement": "intraperitoneal tumor growth by BLI in the abdomen", "setting": "SKOV3-luc-GFP cells; 5 mg/kg i.p. daily, day 16, vs vehicle", "result": "significantly lower"},
      {"measurement": "infiltrated tumor cells in omental tumors (histology)", "setting": "SKOV3-luc-GFP cells; vs vehicle", "result": "significantly fewer"},
      {"measurement": "increase in TUNEL-positive cells in tumors", "setting": "SKOV3-luc-GFP cells; vs vehicle-treated mice", "result": 143},
      {"measurement": "SOX2 levels in xenograft tumors", "setting": "SOX2 [5]", "result": "overall reduction"}
    ]}
  ]
}
